Where a name gives a salt, the structure may show the parent alone. Read-outs that look alike come from different tables or passages of the source.
What was measured:
Type in all cases: cell-based
MYB mRNA [1] = assay: Splicing RT-qPCR assay (THP), Table 2A
[2] = test system: SH-SY5Y (human neuroblastoma) cells; assay: Cell viability, Cell Titer Glo 2.0 assay; conditions: read-out: Viability SHSY5Y.3 GI50
How it was run: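 Toxicity screen in SH-SY5Y cells. Compounds were serially diluted in DMSO and then in medium, giving 0.1% DMSO final. Viability was read with CellTiter-Glo 2.0 after 72 h at 37 °C, 5% CO2, against medium-only blank wells.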

HTT mRNA [3] = assay: Splicing RT-qPCR assay (THP), Table 2A
MYB mRNA [4] = assay: Gene panel canonical junction qPCR assay, decrease in CJ mRNA, Table 3
How it was run: (§1)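 A673 (DMEM, 10% FBS, 15,000 cells/well) or K562 (IMDM, 10% FBS) cells treated 24 h at 37 °C with 11-point 3-fold dilutions, top 10 uM, DMSO ≤0.25%. Canonical exon-exon junction mRNA measured by RT-qPCR, normalized to GAPDH, GUSB or PPIA and DMSO (ΔΔCt); IC50 from 4-parameter logistic fit.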

HTT mRNA [5] = assay: as above
How it was run: as §1

[6] = Table 2A (THP), AJ mRNA increase, read-out: MYB AJ (increase in alternative junction mRNA, AC50)
[7] = Table 2A (THP), CJ mRNA decrease, read-out: MYB CJ (decrease in canonical junction mRNA, IC50)
[8] = Table 2A (THP), AJ mRNA increase, read-out: HTT AJ (increase in alternative junction mRNA, AC50)
[9] = Table 2A (THP), CJ mRNA decrease, read-out: HTT CJ (decrease in canonical junction mRNA, IC50)
[10] = decrease in canonical junction (CJ) mRNA, gene panel qPCR, Table 3
[11] = Table 2A, THP, MYB alternative junction (AJ) mRNA, read-out: MYB AJ (AC50, increase in alternative junction mRNA)
[12] = Table 2A, THP, MYB canonical junction (CJ) mRNA, read-out: MYB CJ (IC50, decrease in canonical junction mRNA)
[13] = Table 2A, THP, HTT alternative junction (AJ) mRNA, read-out: HTT AJ (AC50, increase in alternative junction mRNA)
[14] = Table 2A, THP, HTT canonical junction (CJ) mRNA, read-out: HTT CJ (IC50, decrease in canonical junction mRNA)
[15] = decrease in CJ mRNA levels, canonical junction qPCR, gene panel

| SMILES | IC50 (MYB mRNA [1]; [7]) [nM] | GI50 [2] [nM] | IC50 (HTT mRNA [3]; [9]) [nM] | IC50 (MYB mRNA [4]; [10]) [nM] | IC50 (HTT mRNA [5]; [10]) [nM] | IC50 (MYB mRNA [1]; [12]) [nM] | IC50 (HTT mRNA [3]; [14]) [nM] | IC50 (MYB mRNA [4]; [15]) [nM] | IC50 (HTT mRNA [5]; [15]) [nM] | AC50 (MYB mRNA [1]; [6]) [nM] | AC50 (HTT mRNA [3]; [8]) [nM] | AC50 (MYB mRNA [1]; [11]) [nM] | AC50 (HTT mRNA [3]; [13]) [nM] |
| --- | --- | --- | --- | --- | --- | --- | --- | --- | --- | --- | --- | --- | --- |
| Cc1cn2cc(NC(=O)c3ccc(N4CCC(NC5(C)CC5)CC4)c4cn(C)nc34)cc(F)c2n1 [Compound 355, N-(8-fluoro-2-methyl-imidazo[1,2-a]-pyridin-6-yl)-2-methyl-4-[4-[(1-methyl-cyclopropyl)amino]-1-piperidyl]indazole-7-carboxamide] | < 100 | 100 to 1000 | 100 to 1000 | < 100 | 100 to 1000 |  |  |  |  | < 100 | 100 to 1000 |  |  |
| Cc1cn2cc(NC(=O)c3ccc(N4CCC(NC5CC5)CC4)c4cn(C)nc34)nc2c(CN(C)S(C)(=O)=O)n1 [Compound 703, 4-(4-(cyclopropylamino)piperidin-1-yl)-2-methyl-N-(6-methyl-8-((N-methylmethylsulfonamido)methyl)imidazo[1,2-a]pyrazin-2-yl)-2H-indazole-7-carboxamide 2,2,2-trifluoroacetate] |  | > 10000 |  |  |  | > 10000 | > 10000 | > 10000 | > 10000 |  |  | > 10000 | > 10000 |
| Cn1cc2cc(NC(=O)c3ccc(N4CCC(NC5CC5)CC4)c4cn(C)nc34)cc(CCO)c2n1 [Compound 879] |  | 1000 to 10000 |  |  |  | 1000 to 10000 | > 10000 | 1000 to 10000 | > 10000 |  |  | 1000 to 10000 | > 10000 |
| Cc1cc2cc(NC(=O)c3ccc(N4CCC(NC5CC5)CC4)c4cn(C)nc34)sc2c(C)n1 [Compound 483, 4-[4-(cyclopropyl-amino)-1-piperidyl]-N-(5,7-dimethyl-thieno[2,3-c]-pyridin-2-yl)-2-methyl-indazole-7-carboxamide] | > 10000 | 100 to 1000 | > 10000 | > 10000 | > 10000 |  |  |  |  | > 10000 | > 10000 |  |  |
| Cc1cn2cc(NC(=O)c3ccc(N4CCC(N[C@@H]5C[C@@H]5O)CC4)c4cn(C)nc34)cc(F)c2n1 [Compound 371, N-(8-fluoro-2-methyl-imidazo-[1,2-a]pyridin-6-yl)-4-(4-(((1R,2S)-2-hydroxy-cyclopropyl)-amino)piperidin-1-yl)-2-methyl-2H-indazole-7-carboxamide hydrochloride] | 100 to 1000 | 1000 to 10000 | 1000 to 10000 | 100 to 1000 | 1000 to 10000 |  |  |  |  | < 100 | 1000 to 10000 |  |  |
| CCNC1CCN(c2ccc(C(=O)Nc3cc(CC(N)=O)c4nc(C)cn4c3)c3nn(C)cc23)CC1 [Compound 340, N-[8-(2-amino-2-oxo-ethyl)-2-methyl-imidazo[1,2-a]pyridin-6-yl]-4-[4-(ethylamino)-1-piperidyl]-2-methyl-indazole-7-carboxamide] | > 10000 | > 10000 | > 10000 | > 10000 | > 10000 |  |  |  |  | > 10000 | > 10000 |  |  |
| Cc1cn2cc(NC(=O)c3ccc(N4CCC5(CCCN5)CC4)c4cn(C)nc34)nc2c(C)n1 [Compound 529] | 100 to 1000 | 1000 to 10000 | > 10000 | 100 to 1000 | > 10000 |  |  |  |  | 100 to 1000 | > 10000 |  |  |
| COc1nc2c(C(=O)Nc3cc(F)c4nn(C)cc4c3)ccc(N3C[C@@H](C)N[C@@H](C)C3)c2s1 [Compound 720] |  | < 100 |  |  |  | < 100 | 100 to 1000 | < 100 | 100 to 1000 |  |  | < 100 | 100 to 1000 |
| Cc1cn2c(N3CCC(NC4CC4)CC3)ccc(C(=O)Nc3cc(CNS(C)(=O)=O)c4nn(C)cc4c3)c2n1 [Compound 839] |  | 1000 to 10000 |  |  |  | 100 to 1000 | 1000 to 10000 | 100 to 1000 | 1000 to 10000 |  |  | 100 to 1000 | 1000 to 10000 |
| Cc1cn2cc(NC(=O)c3ccc(N4CCC(NC5CC5)CC4)c4cn(C)nc34)nc2c(CCS(=O)(=O)N(C)C)n1 [Compound 805] |  | 1000 to 10000 |  |  |  | 1000 to 10000 | > 10000 | 1000 to 10000 | > 10000 |  |  | > 10000 | > 10000 |
| COc1cc2nn(C)cc2cc1NC(=O)c1ccc(N2CCC(N3CCNCC3)C2)c2cn(C)nc12 (stereo not drawn) [Compound 539] | > 10000 | > 10000 | > 10000 | > 10000 | > 10000 |  |  |  |  | > 10000 | 1000 to 10000 |  |  |

Further lines, with some results ahead:

| IC50 (MYB mRNA [1]; [7]) [nM] | GI50 [2] [nM] | IC50 (HTT mRNA [3]; [9]) [nM] | IC50 (MYB mRNA [4]; [10]) [nM] | IC50 (HTT mRNA [5]; [10]) [nM] | IC50 (MYB mRNA [1]; [12]) [nM] | IC50 (HTT mRNA [3]; [14]) [nM] | IC50 (MYB mRNA [4]; [15]) [nM] | IC50 (HTT mRNA [5]; [15]) [nM] | SMILES | AC50 (MYB mRNA [1]; [6]) [nM] | AC50 (HTT mRNA [3]; [8]) [nM] | AC50 (MYB mRNA [1]; [11]) [nM] | AC50 (HTT mRNA [3]; [13]) [nM] |
| --- | --- | --- | --- | --- | --- | --- | --- | --- | --- | --- | --- | --- | --- |
| 100 to 1000 | > 10000 | > 10000 | 100 to 1000 | > 10000 |  |  |  |  | Cc1cn2cc(NC(=O)c3c(F)cc(N4CCC(NC5CC5)CC4)c4cn(C)nc34)cc(Oc3ccnnc3)c2n1 [Compound 386, 4-[4-(cyclopropylamino)-1-piperidyl]-6-fluoro-2-methyl-N-(2-methyl-8-pyridazin-4-yloxy-imidazo-[1,2-a]-pyridin-6-yl)indazole-7-carboxamide] | 100 to 1000 | 1000 to 10000 |  |  |
|  | > 10000 |  |  |  | > 10000 | > 10000 | > 10000 | > 10000 | COc1cc2nc(C)cn2cc1NC(=O)c1c(F)cc(N2CCC(NC3CC3)CC2)c2cc(C)nn12 [Compound 626, 4-[4-(cyclopropylamino)-1-piperidyl]-6-fluoro-N-(7-methoxy-2-methylimidazo-[1,2-a]pyridin-6-yl)-2-methylpyrazolo-[1,5-a]pyridine-7-carboxamide] |  |  | > 10000 | > 10000 |
| > 10000 | 1000 to 10000 | > 10000 | > 10000 | > 10000 |  |  |  |  | CCNC1CCN(c2ccc(C(=O)Nc3cn4cc(C)nc(C)c4c3OC)c3nn(C)cc23)CC1 [Compound 452, 4-(4-(ethylamino)-piperidin-1-yl)-N-(8-methoxy-1,3-dimethyl-pyrrolo[1,2-a]pyrazin-7-yl)-2-methyl-2H-indazole-7-carboxamide 2,2,2-trifluoroacetate] | > 10000 | > 10000 |  |  |
|  | 100 to 1000 |  |  |  | 100 to 1000 | 100 to 1000 | 100 to 1000 | 100 to 1000 | COc1nc2c(C(=O)Nc3cc4cn(C)nc4cc3OC)ccc(N3CCC(NC4CC4)CC3)c2o1 [Compound 681, 7-[4-(cyclopropylamino)-1-piperidyl]-2-methoxy-N-(6-methoxy-2-methyl-indazol-5-yl)-1,3-benzoxazole-4-carboxamide] |  |  | < 100 | 100 to 1000 |
| 100 to 1000 | 100 to 1000 | 100 to 1000 | 100 to 1000 | 100 to 1000 |  |  |  |  | CNC1CCN(c2ccc(C(=O)Nc3cn4cc(C)nc(C)c4n3)c3nn(C)cc23)C1 (stereo not drawn) [Compound 505] | 100 to 1000 | 100 to 1000 |  |  |
| > 10000 | 1000 to 10000 | > 10000 | > 10000 | > 10000 |  |  |  |  | Cc1cn2cc(NC(=O)c3ccc(N4CC5(CNCCO5)C4)c4cn(C)nc34)nc2c(C)n1 [Compound 497] | > 10000 | > 10000 |  |  |
|  | > 10000 |  |  |  | > 10000 | > 10000 | > 10000 | > 10000 | Cn1cc2cc(NC(=O)c3ccc(N4CCC(NC5CC5)CC4)c4cn(C)nc34)cc(CNC3(C)COC3)c2n1 [Compound 834] |  |  | > 10000 | > 10000 |
|  | > 10000 |  |  |  | > 10000 | > 10000 | > 10000 | > 10000 | Cc1cn2cc(NC(=O)c3ccc(N4CCC(NC5CC5)CC4)c4cn(C)nc34)nc2c(CNS(C)(=O)=O)n1 [Compound 694, 4-(4-(cyclopropylamino)piperidin-1-yl)-2-methyl-N-(6-methyl-8-(methylsulfonamidomethyl)imidazo[1,2-a]pyrazin-2-yl)-2H-indazole-7-carboxamide 2,2,2-trifluoroacetate] |  |  | > 10000 | > 10000 |
|  | 100 to 1000 |  |  |  | 100 to 1000 | 100 to 1000 | 100 to 1000 | 100 to 1000 | COc1nc2c(C(=O)Nc3cc(F)c4nn(C)cc4c3)ccc(N3CCN4CCCC[C@H]4C3)c2s1 [Compound 746] |  |  | < 100 | 100 to 1000 |
| < 100 | 100 to 1000 | 1000 to 10000 | < 100 | 1000 to 10000 |  |  |  |  | COc1c(NC(=O)c2c(F)cc(N3CCC(NC4CC4)C4(CC4)C3)c3cn(C)nc23)cn2cc(C)nc2c1F (stereo not drawn) [Compound 369, 4-[8-(cyclopropylamino)-5-azaspiro [2.5]octan-5-yl]-6-fluoro-N-(8-fluoro-7-methoxy-2-methyl-imidazo[1,2-a]-pyridin-6-yl)-2-methyl-indazole-7-carbox-amide] | < 100 | 100 to 1000 |  |  |
